Tests used:
[1] = system: GIPR expression in H295R cells; test: GIPR messenger RNA by RT-qPCR in H295R cells after KDM1A inhibition; type: cell-based, human; details: for GIPR messenger RNA level (RT-qPCR): GSK-LSD1 at 0.5 μM
Description: (§1) H295R cells were cultivated in DMEM/Ham's F-12 Medium supplemented with 2 mM Glutamine, 100 IU/mL Penicillin, 100 μg/mL Streptomycin, 10% Fetal Bovine Serum, 20 mM HEPES, and a mixture of Insulin (1 μM), Transferrin (5.8 mg/ml) and Selenium (60 nM). Human pancreatic β-cells EndoC-βH1 have also been used. They are cultivated as described in Ravassard P. et al^38.
(§2) Cells were incubated up to 10 days with 0.5 μM GSK-LSD1 an irreversible inhibitor of KDM1A (Sigma-Aldrich).
(§3) Transfection of siRNAs protocol was performed as follow. Briefly, H295R cells were cultivated in serum free Optimem medium (Life Technologies) for 2 hours, then incubated for 6 h with Lipofectamine RNAiMAX (2 μL/well) and 100 nM siRNA targeting KDM1A or Scrambled siRNA (Horizon). Two iterative transfections were performed at 1 and 3 days after seeding. Expression level of the studied gene was determined using reverse transcription quantitative polymerase chain reaction (RT-qPCR).
(§4) RNA extraction from cell cultures and tissue protocol and RT-qPCR protocol were as follows: DNA was extracted from frozen adrenal samples using the phenol-chloroform-isoamyl alcohol extraction method. DNA was extracted from Formalin-Fixed Paraffin-Embedded (FFPE) sample using NucleoSpin DNA FFPE XS kit (Macherey-Nagel) or from blood leucocytes using either an automated QIAsymphony platform (Qiagen) or the Flexigene DNA Kit (Qiagen). Total RNA was extracted from tissues or cells using TRIzol reagent according to the manufacturer's instructions. After DNAse I treatment (New England Biolabs), 1 μg of total RNA was reverse transcribed using the High-Capacity cDNA reverse transcription kit (Life Technologies). Samples were analyzed by RT-qPCR using the Power SYBR® Green PCR Master Mix (Life Technologies) or the TaqMan Gene Expression Assays (Life Technologies, ref. 4331182 and 4448489) and were run on a QS6 Real-Time PCR System (Life Technologies). […] Relative expression of the gene of interest was expressed as a ratio of attomoles to attomoles of housekeeper genes.

[2] = system: GIPR protein in H295R cells; test: GIPR protein by immunofluorescence and automated High-throughput Microscopy in H295R cells; type: cell-based, human
Description: as §1, §2, §3
Cells were grown on a 24 well plates containing glass coverslips (14-mm diameter). After 24 h, siRNA targeting KDM1A or Scramble siRNA (100 nM) were transfected as described above. Briefly, cells were fixed with 4% paraformaldehyde and permeabilized 10 min with a 0.2% solution of Triton X100 diluted in PBS. […]
Sequential images (20×-0.40 NA lens) were acquired for each channel with the automated ArrayScan VTI imaging and analyzing platform (Thermo Fisher Scientific). The TargetActivation Algorithm (v.4) was used to detect and quantify the GIPR fluorescence as following. DAPI fluorescence was used to find the focus and was sequentially acquired with GIPR fluorescence in order to give separate image files. […] In order to quantify the amount of GIPR fluorescence (channel 2) present in the cytoplasm of the primary selected object, this nuclear mask was dilated to cover the cytoplasmic region. […] The cytoplasmic mask was lastly used to detect, select and quantify the average fluorescence of GIPR in the final population of transfected cells (n>40,000). […]

[3] = system: GIPR messenger RNA levels in human pancreatic β-cells EndoC-βH1; test: GIPR transcripts by RT-qPCR in pancreatic β-cells EndoC-βH1 after KDM1A inhibition; type: cell-based
Description: as §1, §2, §3, §4

SMILES: c1ccc([C@@H]2C[C@H]2NC2CCNCC2)cc1 [GSK-LSD1]
- GIPR messenger RNA level (RT-qPCR) ([1]; seven days, p=0.0082): significant increase of GIPR expression
- GIPR messenger RNA level (RT-qPCR) ([1]; three days, p=0.0069): significant increase of GIPR expression
- GIPR expression, quantified by RT-qPCR ([1]; treatment with GSK-LSD1, time not given): increased GIPR expression
- GIPR protein expression in the cytoplasm (automated High-throughput Microscopy) ([2]; H295R cells transfected (KDM1A siRNA) and treated (GSK-LSD1), seven days, p<0.0001, analyzed cells>40 000): increase in protein expression
- GIPR expression observed by immunofluorescence ([2]; H295R cells, KDM1A siRNA transfection and concomitant pharmacological inhibition (GSK-LSD1) for seven days): significant GIPR expression
- expression of GIPR protein (automated High-throughput Microscopy) ([2]; H295R cells, compared to untreated cells, analyzed cells>40 000, p<0.001): significant increased expression of GIPR protein
- GIPR transcripts (RT-qPCR) ([3]; KDM1A siRNA and GSK-LSD1, 3 days of treatment, p=0.0113): significant increase in GIPR transcripts
- GIPR transcripts (RT-qPCR) ([3]; KDM1A siRNA and GSK-LSD1, 7 days of treatment, p=0.0027): significant increase in GIPR transcripts
- GIPR expression (GIPR transcripts, RT-qPCR) ([3]; KDM1A silencing and concomitant GSK-LSD1, time not given): increased GIPR expression
